Test results published in PMC12085125 (Drug Design, Development and Therapy, 2025).

Tests used:
in vitro = settings: Sprague-Dawley, rat, liver microsomes
[1] = tested on: cytochrome P450 2C19 (CYP2C19); settings: cited from earlier work
rat liver microsomes = settings: metabolism to M8, n=3
[2] = tested on: cytochrome P450 3A4 (CYP3A4); settings: cited from earlier work
[3] = cited from earlier work
[4] = tested on: tofacitinib metabolism in rat liver microsomes (enzyme not specified); assay: Inhibition of tofacitinib metabolism in rat liver microsomes; format: in vitro ADME; settings: probe tofacitinib
[5] = healthy male adults; cited from earlier work

SMILES	IC50 at 30 min [4]	increase of AUC of tofacitinib when combined [5]	increase of Cmax of tofacitinib when combined [5]	further results
C[C@@H]1CCN(C(=O)CC#N)C[C@@H]1N(C)c1ncnc2[nH]ccc12 [Tofacitinib]	–	–	–	Km at 30 min (in vitro): 37.3 µM; share processed by CYP2C19 [1]: ~20%; Vmax of tofacitinib enzyme kinetics (rat liver microsomes): 5.482 pmol/min/mg; share processed by CYP3A4 [2]: approximately 50%
CC#CCn1c(N2CCC[C@@H](N)C2)nc2c1c(=O)n(Cc1nc(C)c3ccccc3n1)c(=O)n2C [Linagliptin]	4.06 µM	–	–	bioavailability [3]: approximately 30%
OC(Cn1cncn1)(Cn1cncn1)c1ccc(F)cc1F [Fluconazole]	–	79%	27%	–
COc1ccc2c(c1)C(=O)N(CCc1ccc(S(=O)(=O)NC(=O)NC3CCCCC3)cc1)C(=O)C2(C)C [Gliquidone]	1.14 µM	–	–	half-life ([3]; after oral administration): approximately 1.5 hours
CC(=O)N1CCN(c2ccc(OCC3COC(Cn4ccnc4)(c4ccc(Cl)cc4Cl)O3)cc2)CC1 (stereo not drawn) [Ketoconazole]	–	103%	16%	–
